# Source: the NIST ThermoML archive (doi:10.1021/je300958c)
# Numbers after ± are expanded uncertainties.
# Experiment: relative permittivity at zero frequency (dimensionless)
# Conditions: 101.33 kPa, Liquid, impedance/gain phase analyzer
smiles,measurement,setting,value
N#CCCCCC#N [hexanedinitrile],relative permittivity at zero frequency,278.15 K,34.7 ± 0.1
same,relative permittivity at zero frequency,280.65 K,34.35 ± 0.1
same,relative permittivity at zero frequency,283.15 K,34.01 ± 0.1
same,relative permittivity at zero frequency,285.65 K,33.67 ± 0.1
same,relative permittivity at zero frequency,288.15 K,33.36 ± 0.1
same,relative permittivity at zero frequency,290.65 K,33.04 ± 0.1
same,relative permittivity at zero frequency,293.15 K,32.73 ± 0.1
same,relative permittivity at zero frequency,295.65 K,32.41 ± 0.1
same,relative permittivity at zero frequency,298.15 K,32.12 ± 0.1
same,relative permittivity at zero frequency,300.65 K,31.83 ± 0.1
same,relative permittivity at zero frequency,303.15 K,31.53 ± 0.1
same,relative permittivity at zero frequency,305.65 K,31.26 ± 0.1
same,relative permittivity at zero frequency,308.15 K,30.96 ± 0.1
same,relative permittivity at zero frequency,310.65 K,30.67 ± 0.1
same,relative permittivity at zero frequency,313.15 K,30.38 ± 0.1
same,relative permittivity at zero frequency,315.65 K,30.09 ± 0.1
same,relative permittivity at zero frequency,318.15 K,29.8 ± 0.1
same,relative permittivity at zero frequency,320.65 K,29.5 ± 0.1
same,relative permittivity at zero frequency,323.15 K,29.22 ± 0.1
same,relative permittivity at zero frequency,325.65 K,28.94 ± 0.1
same,relative permittivity at zero frequency,328.15 K,28.69 ± 0.1
same,relative permittivity at zero frequency,330.65 K,28.46 ± 0.1
same,relative permittivity at zero frequency,333.15 K,28.21 ± 0.1
same,relative permittivity at zero frequency,335.65 K,27.98 ± 0.1
same,relative permittivity at zero frequency,338.15 K,27.73 ± 0.1
same,relative permittivity at zero frequency,340.65 K,27.52 ± 0.1
same,relative permittivity at zero frequency,343.15 K,27.3 ± 0.1
same,relative permittivity at zero frequency,345.65 K,27.09 ± 0.1
same,relative permittivity at zero frequency,348.15 K,26.83 ± 0.1
same,relative permittivity at zero frequency,350.65 K,26.6 ± 0.1
same,relative permittivity at zero frequency,353.15 K,26.4 ± 0.1
N#CCCCCCC#N [heptanedinitrile],relative permittivity at zero frequency,248.15 K,36.21 ± 0.1
same,relative permittivity at zero frequency,250.65 K,35.82 ± 0.1
same,relative permittivity at zero frequency,253.15 K,35.44 ± 0.1
same,relative permittivity at zero frequency,255.65 K,35.06 ± 0.1
same,relative permittivity at zero frequency,258.15 K,34.7 ± 0.1
same,relative permittivity at zero frequency,260.65 K,34.35 ± 0.1
same,relative permittivity at zero frequency,263.15 K,33.99 ± 0.1
same,relative permittivity at zero frequency,265.65 K,33.65 ± 0.1
same,relative permittivity at zero frequency,268.15 K,33.31 ± 0.1
same,relative permittivity at zero frequency,270.65 K,32.98 ± 0.1
same,relative permittivity at zero frequency,273.15 K,32.66 ± 0.1
same,relative permittivity at zero frequency,275.65 K,32.36 ± 0.1
same,relative permittivity at zero frequency,278.15 K,32.04 ± 0.1
same,relative permittivity at zero frequency,280.65 K,31.73 ± 0.1
same,relative permittivity at zero frequency,283.15 K,31.43 ± 0.1
same,relative permittivity at zero frequency,285.65 K,31.14 ± 0.1
same,relative permittivity at zero frequency,288.15 K,30.86 ± 0.1
same,relative permittivity at zero frequency,290.65 K,30.57 ± 0.1
same,relative permittivity at zero frequency,293.15 K,30.28 ± 0.1
same,relative permittivity at zero frequency,295.65 K,30 ± 0.1
same,relative permittivity at zero frequency,298.15 K,29.71 ± 0.1
same,relative permittivity at zero frequency,300.65 K,29.45 ± 0.1
same,relative permittivity at zero frequency,303.15 K,29.18 ± 0.1
same,relative permittivity at zero frequency,305.65 K,28.92 ± 0.1
same,relative permittivity at zero frequency,308.15 K,28.67 ± 0.1
same,relative permittivity at zero frequency,310.65 K,28.42 ± 0.1
same,relative permittivity at zero frequency,313.15 K,28.17 ± 0.1
same,relative permittivity at zero frequency,315.65 K,27.94 ± 0.1
same,relative permittivity at zero frequency,318.15 K,27.68 ± 0.1
same,relative permittivity at zero frequency,320.65 K,27.46 ± 0.1
same,relative permittivity at zero frequency,323.15 K,27.23 ± 0.1
same,relative permittivity at zero frequency,325.65 K,27 ± 0.1
same,relative permittivity at zero frequency,328.15 K,26.77 ± 0.1
same,relative permittivity at zero frequency,330.65 K,26.56 ± 0.1
same,relative permittivity at zero frequency,333.15 K,26.32 ± 0.1
N#CCCC#N [butanedinitrile],relative permittivity at zero frequency,333.15 K,56.09 ± 0.1
same,relative permittivity at zero frequency,335.65 K,55.46 ± 0.1
same,relative permittivity at zero frequency,338.15 K,54.85 ± 0.1
same,relative permittivity at zero frequency,340.65 K,54.29 ± 0.1
same,relative permittivity at zero frequency,343.15 K,53.68 ± 0.1
same,relative permittivity at zero frequency,345.65 K,53.11 ± 0.1
same,relative permittivity at zero frequency,348.15 K,52.52 ± 0.1
same,relative permittivity at zero frequency,350.65 K,51.95 ± 0.1
same,relative permittivity at zero frequency,353.15 K,51.36 ± 0.1
same,relative permittivity at zero frequency,355.65 K,50.81 ± 0.1
same,relative permittivity at zero frequency,358.15 K,50.28 ± 0.1
same,relative permittivity at zero frequency,360.65 K,49.73 ± 0.1
same,relative permittivity at zero frequency,363.15 K,49.18 ± 0.1
same,relative permittivity at zero frequency,365.65 K,48.66 ± 0.1
same,relative permittivity at zero frequency,368.15 K,48.14 ± 0.1
same,relative permittivity at zero frequency,370.65 K,47.63 ± 0.1
same,relative permittivity at zero frequency,373.15 K,47.11 ± 0.1
